# Experimental data published in patent US20120121591A1 (priority 2009, published 2012).
# Where two headings read alike, the source gives them in different places.
# Columns and labels:
# Assay type in all cases: cell-based
# hKv1.3 = hKv1.3 (Homo sapiens, UniProt P22001); assay: cell-based
# [1] = tested on: IFN-g secretion from T cells in human whole blood
# [2] = tested on: IL-2 secretion from T cells in human whole blood; conditions: read-out: WB (IL-2) IC50 (nM, Avg)
# [3] = read-out: WB (IFNg) IC5- (nM, Avg)
# Chain of hKv1.3 (P22001 whole entry): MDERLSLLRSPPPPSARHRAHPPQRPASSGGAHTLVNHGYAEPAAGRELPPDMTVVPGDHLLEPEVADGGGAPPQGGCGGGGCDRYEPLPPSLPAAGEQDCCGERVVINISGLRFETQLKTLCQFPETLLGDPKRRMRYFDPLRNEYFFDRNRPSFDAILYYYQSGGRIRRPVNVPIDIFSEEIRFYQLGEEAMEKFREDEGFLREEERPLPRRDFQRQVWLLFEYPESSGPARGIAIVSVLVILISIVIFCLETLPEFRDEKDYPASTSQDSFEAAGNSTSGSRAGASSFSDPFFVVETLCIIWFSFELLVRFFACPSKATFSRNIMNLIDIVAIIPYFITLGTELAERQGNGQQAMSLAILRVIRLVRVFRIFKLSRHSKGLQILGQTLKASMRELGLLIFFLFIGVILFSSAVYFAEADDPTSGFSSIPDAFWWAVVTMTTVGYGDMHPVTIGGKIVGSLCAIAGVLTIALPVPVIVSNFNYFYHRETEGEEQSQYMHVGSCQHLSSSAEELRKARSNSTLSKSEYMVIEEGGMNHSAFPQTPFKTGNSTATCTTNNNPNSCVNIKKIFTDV
Molecule,"IC50 (hKv1.3; Kv1.3 (IWQ) IC50 (nM, Avg))",further results
CC[C@H](C)[C@@H]1NC(=O)[C@@H](NC(=O)[C@H](CO)NC(=O)[C@@H](N)CCCNC(=N)N)CSSC[C@@H](C(=O)O)NC(=O)[C@H]([C@@H](C)O)NC(=O)CNC(=O)[C@@H]2CSSC[C@@H]3NC(=O)[C@H](CCC(N)=O)NC(=O)[C@H](Cc4ccccc4)NC(=O)[C@H](C)NC(=O)[C@H]([C@@H](C)O)NC(=O)[C@H](CSSC[C@H](NC(=O)[C@H](Cc4ccccc4)NC(=O)[C@H](CO)NC(=O)[C@H](CC(C)C)NC(=O)[C@H](CCCNC(=N)N)NC(=O)[C@H](Cc4ccc(O)cc4)NC(=O)[C@H](CCCCN)NC(=O)[C@H](CCSC)NC(=O)[C@H](CO)NC(=O)[C@H](Cc4c[nH]cn4)NC(=O)[C@H](CCCCN)NC3=O)C(=O)N[C@@H](CCCNC(=N)N)C(=O)N[C@@H](CCCCN)C(=O)N[C@@H]([C@@H](C)O)C(=O)N2)NC(=O)[C@H](CCCNC(=N)N)NC(=O)[C@H](CO)NC(=O)[C@H](CCCCN)NC(=O)[C@@H]2CCCN2C(=O)[C@H]([C@@H](C)CC)NC(=O)[C@H](CCCCN)NC(=O)[C@H](CC(=O)O)NC1=O [[Lys6]ShK],0.085 nM,"IC50 ([1]; read-out: WB (IFNg) IC50 (nM, Avg)): 0.21 nM"
"CC[C@H](C)[C@@H]1NC(=O)[C@@H](NC(=O)[C@H](CO)NC(=O)[C@@H](N)CCCNC(=N)N)CSSC[C@@H](C(N)=O)NC(=O)[C@H]([C@@H](C)O)NC(=O)CNC(=O)[C@@H]2CSSC[C@@H]3NC(=O)[C@H](CCCCN)NC(=O)[C@H](Cc4ccccc4)NC(=O)[C@H](C)NC(=O)[C@H]([C@@H](C)O)NC(=O)[C@H](CSSC[C@H](NC(=O)[C@H](Cc4ccccc4)NC(=O)[C@H](CO)NC(=O)[C@H](CC(C)C)NC(=O)[C@H](CCCNC(=N)N)NC(=O)[C@H](Cc4ccc(O)cc4)NC(=O)[C@H](CCCCN)NC(=O)[C@H](CC(N)=O)NC(=O)[C@H](CO)NC(=O)[C@H](Cc4c[nH]cn4)NC(=O)[C@H](CCCCN)NC3=O)C(=O)N[C@@H](CCCNC(=N)N)C(=O)N[C@@H](CCCCN)C(=O)N[C@@H]([C@@H](C)O)C(=O)N2)NC(=O)[C@H](CCCNC(=N)N)NC(=O)[C@H](CO)NC(=O)[C@H](CCCCN)NC(=O)[C@@H]2CCCN2C(=O)[C@H]([C@@H](C)CC)NC(=O)[C@H]([C@@H](C)O)NC(=O)[C@H](CC(=O)O)NC1=O [[Lys16, Asn21]ShK-amide]",0.167 nM,IC50 [2]: 3.24 nM
CC[C@H](C)[C@@H]1NC(=O)[C@@H](NC(=O)[C@H](CO)NC(=O)[C@@H](N)CCCNC(=N)N)CSSC[C@@H](C(=O)O)NC(=O)[C@H]([C@@H](C)O)NC(=O)CNC(=O)[C@@H]2CSSC[C@@H]3NC(=O)[C@H](CCC(N)=O)NC(=O)[C@H](Cc4ccccc4)NC(=O)[C@H](C)NC(=O)[C@H]([C@@H](C)O)NC(=O)[C@H](CSSC[C@H](NC(=O)[C@H](Cc4ccccc4)NC(=O)[C@H](CO)NC(=O)[C@H](CC(C)C)NC(=O)[C@H](CCCNC(=N)N)NC(=O)[C@H](Cc4ccc(O)cc4)NC(=O)[C@H](CCCCN)NC(=O)[C@H](CCSC)NC(=O)[C@H](CO)NC(=O)[C@H](Cc4cnc[nH]4)NC(=O)[C@H](CCCCN)NC3=O)C(=O)N[C@@H](CCCNC(=N)N)C(=O)N[C@@H](CCCCN)C(=O)N[C@@H]([C@@H](C)O)C(=O)N2)NC(=O)[C@H](CCCNC(=N)N)NC(=O)[C@H](CO)NC(=O)[C@H](CCCCN)NC(=O)[C@@H]2CCCN2C(=O)[C@H]([C@@H](C)CC)NC(=O)[C@H]([C@@H](C)O)NC(=O)[C@H](CCCCN)NC1=O [[Lys5]ShK],3.3 nM,–
20kDaPEG-[-Nal16]ShK (RSCIDTIPKSRCTAFXCKHSMKYRLSFCRKTCGTC; 20 kDa PEG; 1-Nal16; ShK PEGylated toxin peptide analog; PEGylated; 3-(1-naphthyl)alanine),–,"IC50 (hKv1.3; read-out: Kv1.3 (IWQ) IC50 (nM, Avg)): 39.1 nM"
CC[C@H](C)[C@@H]1NC(=O)[C@@H](NC(=O)[C@H](CO)NC(=O)[C@@H](N)CCCNC(=N)N)CSSC[C@@H](C(=O)O)NC(=O)[C@H]([C@@H](C)O)NC(=O)CNC(=O)[C@@H]2CSSC[C@@H]3NC(=O)[C@H](CCC(N)=O)NC(=O)[C@H](Cc4ccccc4)NC(=O)[C@H](C)NC(=O)[C@H]([C@@H](C)O)NC(=O)[C@H](CSSC[C@H](NC(=O)[C@H](Cc4ccccc4)NC(=O)[C@H](CO)NC(=O)[C@H](CC(C)C)NC(=O)[C@H](CCCNC(=N)N)NC(=O)[C@H](Cc4ccc(O)cc4)NC(=O)[C@H](CCCCN)NC(=O)[C@H](CCSC)NC(=O)[C@H](CO)NC(=O)[C@H](Cc4c[nH]cn4)NC(=O)[C@H](CCCCN)NC3=O)C(=O)N[C@@H](CCCNC(=N)N)C(=O)N[C@@H](CCCCN)C(=O)N[C@@H]([C@@H](C)O)C(=O)N2)NC(=O)[C@H](CCCNC(=N)N)NC(=O)[C@H](CO)NC(=O)[C@H](CCCCN)NC(=O)[C@H](CCC(=O)O)NC(=O)[C@H]([C@@H](C)CC)NC(=O)[C@H]([C@@H](C)O)NC(=O)[C@H](CC(=O)O)NC1=O [[Glu8]ShK],0.097 nM,"IC50 [1, 3]: 0.238 nM"
CC[C@H](C)[C@@H]1NC(=O)[C@@H](NC(=O)[C@H](CO)NC(=O)[C@@H](N)CCCNC(=N)N)CSSC[C@@H](C(=O)O)NC(=O)[C@H]([C@@H](C)O)NC(=O)CNC(=O)[C@@H]2CSSC[C@@H]3NC(=O)[C@H](CCC(N)=O)NC(=O)[C@H](Cc4ccccc4)NC(=O)[C@H](C)NC(=O)[C@H]([C@@H](C)O)NC(=O)[C@H](CSSC[C@H](NC(=O)[C@H](Cc4ccccc4)NC(=O)[C@H](CO)NC(=O)[C@H](CC(C)C)NC(=O)[C@H](CCCNC(=N)N)NC(=O)[C@H](Cc4ccc(O)cc4)NC(=O)[C@H](CCCCN)NC(=O)[C@H](CCSC)NC(=O)[C@H](Cc4cccc5ccccc45)NC(=O)[C@H](Cc4cnc[nH]4)NC(=O)[C@H](CCCCN)NC3=O)C(=O)N[C@@H](CCCNC(=N)N)C(=O)N[C@@H](CCCCN)C(=O)N[C@@H]([C@@H](C)O)C(=O)N2)NC(=O)[C@H](CCCNC(=N)N)NC(=O)[C@H](CO)NC(=O)[C@H](CCCCN)NC(=O)[C@@H]2CCCN2C(=O)[C@H]([C@@H](C)CC)NC(=O)[C@H]([C@@H](C)O)NC(=O)[C@H](CC(=O)O)NC1=O [[1-Nal20]ShK],2.11 nM,–
CC[C@H](C)[C@@H]1NC(=O)[C@@H](NC(=O)[C@H](CO)NC(=O)[C@@H](N)CCCNC(=N)N)CSSC[C@@H](C(=O)O)NC(=O)[C@H]([C@@H](C)O)NC(=O)CNC(=O)[C@@H]2CSSC[C@@H]3NC(=O)[C@H](CCC(N)=O)NC(=O)[C@H](Cc4ccccc4)NC(=O)[C@H](C)NC(=O)[C@H]([C@@H](C)O)NC(=O)[C@H](CSSC[C@H](NC(=O)[C@H](Cc4ccccc4)NC(=O)[C@H](CO)NC(=O)[C@H](CC(C)C)NC(=O)[C@H](CCCNC(=N)N)NC(=O)[C@H](CCCNC(=N)N)NC(=O)[C@H](CCCCN)NC(=O)[C@H](CCSC)NC(=O)[C@H](CO)NC(=O)[C@H](Cc4cnc[nH]4)NC(=O)[C@H](CCCCN)NC3=O)C(=O)N[C@@H](CCCNC(=N)N)C(=O)N[C@@H](CCCCN)C(=O)N[C@@H]([C@@H](C)O)C(=O)N2)NC(=O)[C@H](CCCNC(=N)N)NC(=O)[C@H](CO)NC(=O)[C@H](CCCCN)NC(=O)[C@@H]2CCCN2C(=O)[C@H]([C@@H](C)CC)NC(=O)[C@H]([C@@H](C)O)NC(=O)[C@H](CC(=O)O)NC1=O [[Arg23]ShK],0.154 nM,–
CC[C@H](C)[C@@H]1NC(=O)[C@@H](NC(=O)[C@H](CO)NC(=O)[C@@H](N)CCCNC(=N)N)CSSC[C@@H](C(=O)O)NC(=O)[C@H](Cc2cccc3ccccc23)NC(=O)CNC(=O)[C@@H]2CSSC[C@@H]3NC(=O)[C@H](CCC(N)=O)NC(=O)[C@H](Cc4ccccc4)NC(=O)[C@H](C)NC(=O)[C@H]([C@@H](C)O)NC(=O)[C@H](CSSC[C@H](NC(=O)[C@H](Cc4ccccc4)NC(=O)[C@H](CO)NC(=O)[C@H](CC(C)C)NC(=O)[C@H](CCCNC(=N)N)NC(=O)[C@H](Cc4ccc(O)cc4)NC(=O)[C@H](CCCCN)NC(=O)[C@H](CCSC)NC(=O)[C@H](CO)NC(=O)[C@H](Cc4cnc[nH]4)NC(=O)[C@H](CCCCN)NC3=O)C(=O)N[C@@H](CCCNC(=N)N)C(=O)N[C@@H](CCCCN)C(=O)N[C@@H]([C@@H](C)O)C(=O)N2)NC(=O)[C@H](CCCNC(=N)N)NC(=O)[C@H](CO)NC(=O)[C@H](CCCCN)NC(=O)[C@@H]2CCCN2C(=O)[C@H]([C@@H](C)CC)NC(=O)[C@H]([C@@H](C)O)NC(=O)[C@H](CC(=O)O)NC1=O [[1-Nal34]ShK],0.077 nM,–
CC[C@H](C)[C@@H]1NC(=O)[C@@H](NC(=O)[C@H](CO)NC(=O)[C@@H](N)CCCNC(=N)N)CSSC[C@@H](C(=O)O)NC(=O)[C@H](CCC(=O)O)NC(=O)CNC(=O)[C@@H]2CSSC[C@@H]3NC(=O)[C@H](CCC(N)=O)NC(=O)[C@H](Cc4ccccc4)NC(=O)[C@H](C)NC(=O)[C@H]([C@@H](C)O)NC(=O)[C@H](CSSC[C@H](NC(=O)[C@H](Cc4ccccc4)NC(=O)[C@H](CO)NC(=O)[C@H](CC(C)C)NC(=O)[C@H](CCCNC(=N)N)NC(=O)[C@H](Cc4ccc(O)cc4)NC(=O)[C@H](CCCCN)NC(=O)[C@H](CCSC)NC(=O)[C@H](CO)NC(=O)[C@H](Cc4c[nH]cn4)NC(=O)[C@H](CCCCN)NC3=O)C(=O)N[C@@H](CCCNC(=N)N)C(=O)N[C@@H](CCCCN)C(=O)N[C@@H]([C@@H](C)O)C(=O)N2)NC(=O)[C@H](CCCNC(=N)N)NC(=O)[C@H](CO)NC(=O)[C@H](CCCCN)NC(=O)[C@@H]2CCCN2C(=O)[C@H]([C@@H](C)CC)NC(=O)[C@H]([C@@H](C)O)NC(=O)[C@H](CC(=O)O)NC1=O [[Glu34]ShK],0.067 nM,"IC50 [1, 3]: 0.123 nM"
